Several values for one entry are separate records, joined by “and”; a condition that tells them apart may be missing. Equal entries are not always repeated.
What was measured:
[1] = uptake and metabolism of ascaroside amides in alfalfa seedlings (LC-MS of tissue extracts); format: in vivo; settings: for hydrolysis or metabolism by the plant: alfalfa plants, timeframe shown (24 h + 4 h)
Description: Ascaroside analogs 1a, 1b, and 1c were also evaluated in alfalfa seedlings to assess whether plants take up these analogs and whether they are hydrolyzed or metabolized to other ascarosides (specifically to ascr #18 and/or ascr #18 metabolites). The ascr #18 metabolism was evaluated by assaying the plant tissues for the known ascaroside metabolite ascr #9.
(§1) Alfalfa seeds were germinated in the dark on culture plates (10 seeds per plate) containing Gelzan growth medium and were allowed to grow for 3-4 days before treatment. Treatment consisted of flooding the plates with 10 μM aqueous solutions of one of the ascaroside analogs 1a, 1b, or 1c, with ascr #18 (as a positive control), or with plain water as a mock treatment (5 ml total volume, solutions prepared in MQ water). Each experiment was performed in duplicate. After 24 hours, the plates were moved to an illuminated growth chamber for 4 hours before sampling.
Sprouts were collected, thoroughly rinsed with MQ water, dried, flash-frozen, and homogenized. The homogenized tissues were extracted with 100% ethanol and the extracts were analyzed using high-resolution liquid chromatography-mass spectrometry (LC-MS). LC-MS analysis was performed using a Dionex 3000 UPLC coupled with a Thermo Q Exactive high-resolution mass spectrometer equipped with a HESI ion source. To measure ascarosides, samples were chromatographed using an Agilent Zorbax Eclipse column (150 mm×2.1 mm, particle size 1.98 μm) maintained at 40° C. with a 0.5 ml/min flow rate. Solvent A: 0.1% formic acid in water; Solvent B: 0.1% formic acid in acetonitrile. A solvent mixture using 1% B was used for 1.5 min after injection, followed by a linear gradient up to 99% B at 9.5 min, followed by 0.75 min of 99% B, then back to 1% B over 0.5 min, and finally held at 1% B for an additional 1.25 min to re-equilibrate the column (total time: 12 min, with needle washing and file writing: ˜14 min). Mass spectrometer parameters: spray voltage (−3.0 kV or +3.5 kV); capillary temperature 380° C.; probe heater temperature 400° C.; sheath, auxiliary, and sweep gas 60, 20, and 2 AU, respectively—S-Lens RF level: 50, resolution 120,000 at m/z 200, AGC target 3E6. Samples were injected and analyzed in negative electrospray ionization mode with an m/z range of 100-1000. Ascr #18 (C17H32O6) ionizes in negative ion mode as C17H31O6, m/z=331.2126, retention time 6 minutes using the above chromatographic conditions. Samples were also analyzed in positive ionization mode.
(§2) The treatment solutions used to treat the sprouts were also analyzed assayed and the results are shown in the Column of Table 1 labeled “Input” In each case, only the analog, or ascr #18 respectively is detected, indicating the molecules are stable in the treatment solutions.

[2] = tested on: Bipolaris sorokiniana; test: wheat pathogen assay (fungal infection of wheat seedlings); format: in vivo; settings: FIG. 1; for infection symptoms (symptomatic areas relative to the total leaf area) compared to mock: wheat cv. Louise sprayed with 1 μM solution in 0.1% Tween-20, inoculated 48 hours later with Bipolaris sorokiniana spores; for efficacy in reducing fungal infection relative to ascr #18: wheat, 1 μM solutions
Description: The products of Examples 1, 1a to 1, 1c (hereafter referred to as compounds 1a, 1b, and 1c) were evaluated in a wheat pathogen assay to assess the potential of these analogs to prevent crop damage caused by a fungal pathogen. Wheat seeds of cv. Louise were planted in potting soil and grown for two weeks in a growth chamber at 26° C. and 23° C., respectively, with 16 hours of light. After two weeks, the plants were sprayed with a 1 μM solution of ascr #18, or compounds 1a, 1b, or 1c containing 0.1% (v/v) Tween®-20 in water solution, or with a mock solution only containing 0.1% (v/v) Tween®-20. 48 hours after treatment, the wheat plants were inoculated with a Bipolaris sorokiniana spore solution (with 15000 spores/ml) and placed in a dark grow tent with high humidity (>80% RH) for 24 hours at 23° C. Subsequently, the plants were moved to a high humidity environment (>80% RH) at 23° C. and 12 hours of light and dark until fungal infection was visible on the leaves of the mock-treated plants (usually after about four days). Symptoms were evaluated by photographing the infected leaves and processing the images through machine learning image analysis software (Ilastik) to determine the symptomatic areas relative to the total leaf area. […] The infection levels in the treated plants were similar to those treated with 1 μM ascr #18. […] In FIG. 1, error bars depict standard error of the mean for a total n≥35 plants across 4 independent experiments. Outliers were removed with the GraphPad ROUT method, and significance determined by a one-way ANOVA test.

[3] = LC-MS analysis of the treatment solutions (Input); format: physicochemical; settings: 10 μM aqueous treatment solutions used to treat the sprouts; Rep1/Rep2
Description: as §1
Sprouts were collected, thoroughly rinsed with MQ water, dried, flash-frozen, and homogenized. The homogenized tissues were extracted with 100% ethanol and the extracts were analyzed using high-resolution liquid chromatography-mass spectrometry (LC-MS). […] Samples were injected and analyzed in negative electrospray ionization mode with an m/z range of 100-1000. […] Samples were also analyzed in positive ionization mode.
as §2

Structure (SMILES) | hydrolysis or metabolism by the plant [1] | infection symptoms (symptomatic areas relative to the total leaf area) compared to mock [2] | efficacy in reducing fungal infection relative to ascr #18 [2] | Input (LCMS detector response for diagnostic ion of the analog or ascr#18) [3] | uptake by plants ([1]; alfalfa sprouts, 10 μM) | half-life in the plant relative to ascr #18 ([1]; alfalfa, inferred from LC-MS data of Table 1)
C[C@H](CCCCCCCCC(=O)NCCO)O[C@@H]1O[C@@H](C)[C@H](O)C[C@H]1O [1b, (R)-10-(((2R,3R,5R,6S)-3,5-dihydroxy-6-methyltetrahydro-2H-pyran-2-yl)oxy)-N-(2-hydroxyethyl)-undecanamide] | hydrolyzed or metabolized by the plant | reduced infection symptoms | comparable to that of ascr #18 |  |  | 
C[C@H](CCCCCCCCC(N)=O)O[C@@H]1O[C@@H](C)[C@H](O)C[C@H]1O [1c, (R)-10-(((2R,3R,5R,6S)-3,5-dihydroxy-6-methyltetrahydro-2H-pyran-2-yl)oxy)-undecanamide] | hydrolyzed or metabolized by the plant | reduced infection symptoms | comparable to that of ascr #18 |  |  | 
CCN(CC)C(=O)CCCCCCCC[C@@H](C)O[C@@H]1O[C@@H](C)[C@H](O)C[C@H]1O [compound 1a, (R)-10-(((2R,3R,5R,6S)-3,5-dihydroxy-6-methyltetrahydro-2H-pyran-2-yl)oxy)-N,N-diethylundecanamide] | not hydrolyzed or metabolized | reduced infection symptoms | comparable to that of ascr #18 | 4.03E+06 and 6.78E+06 | taken up by plants | longer half life than ascr #18 or the other analogs tested

Reference: US20260150838A1, “ASCAROSIDE DERIVATIVES” (Ascribe Bioscience Inc., priority 2023, published 2026)
